Results from publication PMC9760738, “Pharmacokinetics, absorption, distribution, metabolism and excretion of the MEK inhibitor zapnometinib in rats” (Frontiers in Pharmacology, 2022).
“And” between values parts separate entries of the source, which are not always exact repeats. Equal entries are not always repeated.

Experiments:
[1] = Plasma total radioactivity pharmacokinetics after single oral 30 mg/kg [14C]-zapnometinib, Sprague-Dawley rats (Group 1); format: in vivo, rat
Experimental: (§1) Oral doses of [^14C]-zapnometinib were administered as a suspension in 5% DMSO (v/v), 30% PEG 400 (v/v) and 7.5% (w/v) Captisol in water at a dose level of 30 mg/kg to male and female rats by gastric intubation at a dose volume of 4 ml/kg body weight. The selected dose level (30 mg/kg) was below the no observed adverse effect level (100 mg/kg), the formulation was selected based on data obtained in other nonclinical studies. The radioactive dose administered to each animal was quantified from the weight (excretion studies only) or volume of dosing formulation given, and its mean measured radioactivity concentration. The weight of test compound administered to each rat was determined from the radioactive dose administered and the specific activity of the test material.
After single oral doses of [^14C]-zapnometinib to three male and three female rats, a blood sample (ca 220 µL) was taken from each animal, via the jugular or tail vein at each of the following time points: 0.25, 0.5, 1, 2, 4, 8, 24, 48, 72, 96, 120 and 168 h after dose administration. All blood samples were delivered into K2EDTA tubes and centrifuged (ca 2000 ×g at 4°C for 10 min) to obtain plasma; blood cells were discarded. After collection of the terminal sample, rats were killed by cervical dislocation and the carcasses discarded.
(§2) Radioactivity was measured by liquid scintillation analysis using Wallac® 1409 automatic liquid scintillation counters. Samples were prepared according to the company’s SOP (see Supplementary Methods). Briefly, replicate weighed samples were mixed with Ultima Gold™ scintillation cocktail (PerkinElmer, United States) for the measurement of radioactivity. Radioactivity in amounts less than twice that of the background concentration in the sample under investigation was below the limit of accurate quantification (BLQ).
Weight, volume, and radioactivity concentration (liquid scintillation analysis) results relating to the analysis of biological samples generated during this study were acquired and processed using DEBRA, a Laboratory Information Management System (v 5.5.4). Pharmacokinetic parameters were calculated using the computer program Phoenix™ WinNonlin version 8.3 (Pharsight Corporation, United States). Areas under the mean plasma radioactivity concentration-time curves up to the time of the last quantifiable sample (AUC0-t) were estimated by the linear trapezoidal rule. Areas under the mean plasma radioactivity concentration-time curves to infinite time (AUC0-inf) were calculated using the expression: AUC0-inf = AUC0-t + Ct/λz, where Ct is the last measurable concentration and λz is the elimination rate constant estimated using log-linear regression during the terminal elimination phase. Statistical evaluation was limited to basic expressions of variation such as means and standard deviation.

[2] = Plasma protein binding assay, rat plasma; format: in vitro ADME; conditions: data not shown
[3] = from other nonclinical studies; cited from earlier work
[4] = Plasma protein binding assay, dog plasma; format: in vitro ADME; conditions: data not shown
[5] = Excretion balance of radioactivity after single oral 30 mg/kg [14C]-zapnometinib, Sprague-Dawley rats (Group 2); format: in vivo, rat; conditions: for Total recovery: 0-168 h; for Carcass: 168 h
Experimental: as §1
Total excreta from three male and three female rats were collected after single oral doses of [^14C]-zapnometinib. Urine was collected into containers cooled in solid CO2 and feces were collected separately at ambient temperature. Expired air was trapped in 1M potassium hydroxide solution. After completion of the final excreta collection, rats were killed by cervical dislocation following sedation, and the carcasses retained for analysis.
as §2, with “(BLQ). […]” for “(BLQ).”
For Liquid scintillation analyses, carcasses from rats (Group 2) were solubilized by digestion at ca 55 °C overnight in a solution prepared from sodium hydroxide (80 g) and Triton X-405 (100 mL) in purified water (600 mL) and methanol (300 mL). After measurement of total sample weight (as appropriate), replicate portions of diluted dose solutions (ca 0.1 mL), plasma (ca 0.05 – 0.25 mL), urine (ca 0.05 – 0.25 mL), expired air trap solution (ca 1 mL) and cage wash (ca 1 mL) were mixed directly with Ultima Gold scintillation cocktail (5 mL; 15 mL for air traps) for measurement of radioactivity concentrations. Similarly, replicate weighed portions of digested carcass solutions (ca 1 mL plus 1 mL purified water) were mixed with Ultima Gold (10 mL) scintillation cocktail for measurement of radioactivity concentrations. Feces were weighed, then homogenized to a smooth paste after the addition of an appropriate volume (approximately 1.5 volumes) of purified water and the weight of each homogenate was recorded. Replicate weighed portions of feces (ca 0.2 g) and blood cells (ca. 0.25 g) were placed on Combustocones, which were then capped with cellulose pads and burned in oxygen using […]

[6] = individual males 7M, 8M, 9M, rows in order of periods 0-24, 0-48, 0-72, 0-96, 0-120, 0-144, 0-168 h

O=C(O)c1ccc(F)c(F)c1Nc1ccc(I)cc1Cl [zapnometinib, 2-(2-Chloro-4-iodophenylamino)-3,4-difluorobenzoic acid]
Mean plasma radioactivity concentration ([1]; 48 h post dose, females): 0.650 μg equivs/ml
Mean plasma radioactivity concentration ([1]; 48 h post dose, males): 0.724 μg equivs/ml
Mean plasma radioactivity concentration ([1]; 168 h post dose, females): 0.049 μg equivs/ml
Mean plasma radioactivity concentration ([1]; 168 h post dose, males): 0.054 μg equivs/ml
Plasma radioactivity at 168 h as % of Cmax ([1]; females): ~0.04%
Plasma radioactivity at 168 h as % of Cmax ([1]; males): ~0.06%
AUC0-t females versus males ([1]; total plasma radioactivity): 1.4 fold
Cmax females versus males ([1]; total plasma radioactivity): 1.5 fold
Protein binding [2]: high protein binding
Unbound fraction [2]: very low
No observed adverse effect level [3]: 100 mg/kg
Protein binding [4]: high protein binding
Unbound fraction [4]: very low
Cumulative excretion, urine ([5]; 0-6 h, male, mean): 0.23 % administered dose
Cumulative excretion, faeces ([5]; 0-24 h, male, mean): 79.34 % administered dose
Cumulative excretion, urine ([5]; 0-24 h, male, mean): 2.20 % administered dose
Cumulative, cage wash ([5]; 0-24 h, male, mean): 0.14 % administered dose
Cumulative, expired air ([5]; 0-24 h, male, mean): 0.02 % administered dose
Cumulative excretion, faeces ([5]; 0-48 h, male, mean): 89.32 % administered dose
Cumulative excretion, urine ([5]; 0-48 h, male, mean): 2.68 % administered dose
Cumulative, cage wash ([5]; 0-48 h, male, mean): 0.18 % administered dose
Cumulative, expired air ([5]; 0-48 h, male, mean): 0.02 % administered dose
Cumulative excretion, faeces ([5]; 0-72 h, male, mean): 90.12 % administered dose
Cumulative excretion, urine ([5]; 0-72 h, male, mean): 2.77 % administered dose
Cumulative, cage wash ([5]; 0-72 h, male, mean): 0.19 % administered dose
Cumulative, expired air ([5]; 0-72 h, male, mean): 0.02 % administered dose
Cumulative excretion, faeces ([5]; 0-96 h, male, mean): 90.28 % administered dose
Cumulative excretion, urine ([5]; 0-96 h, male, mean): 2.80 % administered dose
Cumulative, cage wash ([5]; 0-96 h, male, mean): 0.21 % administered dose
Cumulative excretion, faeces ([5]; 0-120 h, male, mean): 90.34 % administered dose
Cumulative excretion, urine ([5]; 0-120 h, male, mean): 2.82 % administered dose
Cumulative, cage wash ([5]; 0-120 h, male, mean): 0.21 % administered dose
Cumulative excretion, faeces ([5]; 0-144 h, male, mean): 90.37 % administered dose
Cumulative excretion, urine ([5]; 0-144 h, male, mean): 2.83 % administered dose
Cumulative, cage wash ([5]; 0-144 h, male, mean): 0.21 % administered dose
Total recovery ([5]; female, mean): 98.26 % Administered dose
Total recovery ([5]; male, mean): 93.72 % Administered dose
Carcass ([5]; female, mean): 0.19 % Administered dose
Carcass ([5]; male, mean): 0.20 % Administered dose
Radioactivity in carcasses ([5]; 168 h post dose, both sexes): ~0.2%
Cumulative, expired air ([5]; individual males 7M, 8M, 9M, periods 0-24, 0-48, 0-72 h): 0.02 % administered dose
Cumulative excretion, urine ([5]; individual males 7M, 8M, 9M, rows in order of periods 0-6, 0-24, 0-48, 0-72, 0-96, 0-120, 0-144, 0-168 h): 0.23 % administered dose and 0.16 % administered dose and 0.30 % administered dose and 2.69 % administered dose and 1.99 % administered dose and 1.92 % administered dose and 3.13 % administered dose and 2.48 % administered dose and 2.43 % administered dose and 3.20 % administered dose and 2.55 % administered dose and 2.56 % administered dose and 3.22 % administered dose and 2.58 % administered dose and 2.61 % administered dose and 3.23 % administered dose and 2.59 % administered dose and 2.63 % administered dose and 3.24 % administered dose (2×) and 2.60 % administered dose (2×) and 2.64 % administered dose and 2.65 % administered dose
Cumulative excretion, faeces [5, 6]: 81.33 % administered dose and 77.94 % administered dose and 78.75 % administered dose and 90.61 % administered dose and 88.87 % administered dose and 88.48 % administered dose and 91.30 % administered dose and 89.52 % administered dose and 89.53 % administered dose and 91.37 % administered dose and 89.65 % administered dose and 89.82 % administered dose and 91.41 % administered dose and 89.69 % administered dose and 89.92 % administered dose and 91.44 % administered dose and 89.72 % administered dose and 89.96 % administered dose and 91.46 % administered dose and 89.89 % administered dose and 89.99 % administered dose
Cumulative, cage wash [5, 6]: 0.14 % administered dose (2×) and 0.16 % administered dose (4×) and 0.11 % administered dose and 0.22 % administered dose and 0.19 % administered dose and 0.23 % administered dose (5×) and 0.20 % administered dose and 0.15 % administered dose and 0.24 % administered dose (3×) and 0.26 % administered dose and 0.17 % administered dose
